Columns and labels:
MELN cells = type: cell-based, human
Procedure: The use of bisphenol A in epoxy systems is often avoided for this reason. Various phenolic compounds, such as phenolic Mannich bases may also pose a risk of acting as oestrogen agonists, this is thought to be due to structural similarity between the phenolic group and the phenolic group present in oestrogen itself. […]. The tests were performed using MELN cells [hER-stably transfected model of the human breast cancer MCF-7 cells]. The use of MELN cells for screening cytotoxicity and oestrogenic activity is a standard test known in the art, for example, as described in Berckmans P, Leppens H, Vangenechten C, Witters H., “Screening of endocrine disrupting chemicals with MELN cells, an ER-transactivation assay combined with cytotoxicity assessment”, Toxicol In Vitro. 2007, 21(7), 1262-7.

oestrogen receptor = biological target: T1, oestrogen receptor (Homo sapiens, UniProt P03372); test: Oestrogenic activity testing using MELN cells (ER-transactivation assay); type: cell-based; details: hER-stably transfected MCF-7
T1 construct: MELN cells [hER-stably transfected model of the human breast cancer MCF-7 cells]; endogenous in cells; host or cells: MELN cells (MCF-7 human breast cancer cells)
T1 sequence (P03372 1-595): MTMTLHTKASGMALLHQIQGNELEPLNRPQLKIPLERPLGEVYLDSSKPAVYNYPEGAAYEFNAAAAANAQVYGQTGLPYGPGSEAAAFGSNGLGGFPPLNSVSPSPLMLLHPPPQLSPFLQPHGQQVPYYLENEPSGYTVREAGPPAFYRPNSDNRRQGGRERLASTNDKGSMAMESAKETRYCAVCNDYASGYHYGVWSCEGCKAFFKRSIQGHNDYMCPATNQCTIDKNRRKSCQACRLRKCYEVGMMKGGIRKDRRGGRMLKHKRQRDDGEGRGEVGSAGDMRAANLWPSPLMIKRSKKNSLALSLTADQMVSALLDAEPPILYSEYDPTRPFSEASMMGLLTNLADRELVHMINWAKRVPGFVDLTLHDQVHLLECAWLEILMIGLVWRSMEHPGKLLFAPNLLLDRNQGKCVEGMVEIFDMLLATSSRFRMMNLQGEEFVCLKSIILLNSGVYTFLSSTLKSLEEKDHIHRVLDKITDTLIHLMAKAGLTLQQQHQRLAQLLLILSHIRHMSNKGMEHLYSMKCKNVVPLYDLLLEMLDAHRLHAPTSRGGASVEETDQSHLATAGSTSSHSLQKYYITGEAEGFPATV
Procedure: Various phenolic compounds, such as phenolic Mannich bases may also pose a risk of acting as oestrogen agonists, this is thought to be due to structural similarity between the phenolic group and the phenolic group present in oestrogen itself. […] The tests were performed using MELN cells [hER-stably transfected model of the human breast cancer MCF-7 cells].

[1] = Viscosity at 25° C., ASTM D2556-14(2018); type: physicochemical; details: undiluted curative composition / product as prepared
Procedure: This material was then diluted with benzyl alcohol in order to reduce the viscosity. The relationship between the viscosity (as measured by ASTM D2556-14(2018)) and the vol % dilution with benzyl alcohol is shown in FIG. 1. […] The properties of a 63:37 vol/vol mixture of salicylamide Mannich base C:benzyl alcohol are shown below in Table 7.

CC(C)(c1ccc(O)cc1)c1ccc(O)cc1 [Bisphenol A, bisphenol A]
Cytotoxicity (MELN cells): No | Agonist response (oestrogen receptor): Positive

NCCNCCNCCNCc1cc(CNCCNCCNCCN)c(O)c(C(=O)NCCNCCNCCN)c1 [Salicylamide Mannich Base A]
Cytotoxicity (MELN cells): No | Agonist response (oestrogen receptor): Negative | Viscosity at 25° C. [1]: 1130 m · Pas

C[C@]12CC[C@@H]3c4ccc(O)cc4CC[C@H]3[C@@H]1CC[C@@H]2O [17β- oestradiol, 17β-oestradiol]
Cytotoxicity (MELN cells): No
